Results taken from PubChem BioAssay (NCI).
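Where inhibition never reached the appropriate level, the endpoint shown equals the highest concentration tested. Otherwise, values were interpolated linearly from a five-concentration, 48-hour dose response in 96-well plates. TGI denotes the concentration required for complete inhibition of growth.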

What was measured:
Assay in all cases: NCI tumour cell line growth inhibition, 48 h
TK-10 renal = test system: TK-10 renal
HT29 colon = test system: HT29 colon
UACC-257 melanoma = test system: UACC-257 melanoma
HOP-62 NSCLC = test system: HOP-62 NSCLC
SNB-19 CNS = test system: SNB-19 CNS
M14 melanoma = test system: M14 melanoma
OVCAR-3 ovarian = test system: OVCAR-3 ovarian
HS 578T breast = test system: HS 578T breast
IGROV1 ovarian = test system: IGROV1 ovarian
DU-145 prostate = test system: DU-145 prostate

| Structure (SMILES) | TGI (TK-10 renal) [µM] | TGI (HT29 colon) [µM] | TGI (UACC-257 melanoma) [µM] | TGI (HOP-62 NSCLC) [µM] | TGI (SNB-19 CNS) [µM] | TGI (M14 melanoma) [µM] | TGI (OVCAR-3 ovarian) [µM] | TGI (HS 578T breast) [µM] | TGI (IGROV1 ovarian) [µM] | TGI (DU-145 prostate) [µM] |
| --- | --- | --- | --- | --- | --- | --- | --- | --- | --- | --- |
| CC(=O)O[C@]12CCCCCC1C1(O)C(O)CCC[C@H]12 (stereo not given in full) | > 100 | > 100 | > 100 | > 100 | > 100 | > 100 |  |  |  |  |
| CSc1c(C#N)c(N)n2c1C(=O)N(c1ccccc1)C2=S | > 100 | > 100 | > 100 | > 100 | > 100 | > 100 | > 100 | 80.7 | > 100 | > 100 |
| COC(=O)c1c2c(cc3c1CC1(C3)Cc3cc4c(c(C(=O)OC)c3C1)CCCC4)CCCC2 | > 100 | > 100 | > 100 | > 100 |  | > 100 | > 100 | > 100 | > 100 |  |
| N#CC(C#N)=CNC(=S)c1ccncc1 |  | > 100 | > 100 | > 100 | > 100 | > 100 | 1.36 | > 100 | > 100 | > 100 |
| Cc1nn(C(=O)Cc2ccccc2)c2c1C(c1ccc(O)cc1)SC(N)=N2 (stereo not given) | > 100 | > 100 | > 100 | > 100 | > 100 | > 100 |  | > 100 | > 100 | > 100 |
| C=CC[C@]12C[C@@H](C(=O)OC)N(C(=O)OC)[C@H]1N(S(=O)(=O)c1ccccc1)c1ccccc12 | > 100 | > 100 | 77.3 | > 100 | > 100 |  | > 100 | > 100 | > 100 | > 100 |
| C=C[C@@H]1C(CO)=CCC2[C@H]1CCC1C(C)(C)C(=O)CC[C@]21C (stereo not given in full) | > 100 | > 100 | > 100 | > 100 | > 100 | > 100 | > 100 | > 100 | > 100 | > 100 |
| Clc1ccc(-c2nn3c(-c4ccncc4)nnc3s2)cc1 | > 100 | > 100 | > 100 | 51.3 | > 100 | > 100 | > 100 | > 100 | > 100 | > 100 |
| O=C(CNc1ccccc1Cl)Nn1c(-c2ccccc2)nc2ccccc2c1=O | > 100 | > 10 | > 100 | 72.9 | > 10 | > 10 | 48.3 | 89.5 | 75.4 | > 100 |
| O=c1c2ccccc2nc2[nH][nH]c(=S)n12 | > 100 | > 100 | > 100 | > 100 | > 100 | > 100 | > 100 | > 100 | > 100 | > 100 |
| O=C1c2cc3c(cc2CC1Br)CCC3 (stereo not given) | 8.77 | 5.78 | 5.1 | 30.8 | 27.6 | 2.85 | 3.86 | > 100 | 9.3 | 29.4 |
| CCN(C(=S)N[C@@H](Cc1ccccc1)C(=O)N[C@@H](CC(C)C)C(=O)OC)c1ccccc1 | > 100 | > 100 | > 100 | > 100 | > 100 | > 100 | > 100 |  | > 100 | > 100 |
| O=C(c1cc2ccccc2cc1O)N1CCCCC1 | > 100 | > 100 | > 100 | > 100 | > 100 | 64.9 |  | > 100 | 50 | > 100 |
| CN(C)CCCN1C(=S)N(CCCN(C)C)c2c3cc(O)ccc3nc3c([N+](=O)[O-])ccc1c23 | 29 | 6.31 | 21.2 | 15.3 | 13.9 | 22.4 | 5.56 | 24.4 | 7 | 16.5 |
| O=P(c1ccccc1)(c1ccccc1)N1O[C@@H](c2ccccc2)C=C[C@H]1c1ccccc1 | 27.8 | 26.5 | 26.3 | 46.5 | 30 | 23.9 | 27.8 | 44.6 | 28.9 | 26.3 |
| COCOc1ccc(Cn2c(=O)n(C)c(=O)c3c2ncn3C)cc1[N+](=O)[O-] | > 100 | > 100 | > 100 |  | > 100 | > 100 | > 100 |  | > 100 |  |
| Nc1c(-c2cccc3ccccc23)c2ccc([N+](=O)[O-])cc2c(=O)n1-c1nc2ccccc2s1 | > 100 | 19.9 | > 80.8 | 27.2 | > 49.4 | > 38.9 | > 37 | 20.9 | > 100 | > 100 |
| C(=N\NC1=NCCCN1)/c1ccc2ccccc2c1 | 36.8 | 23 | 42.5 | 26.5 | 31.8 | 22.1 | 32.2 | 41.3 | 32.1 | 24.2 |
| O=C(NC(Cc1ccc(I)cc1)C(=O)O)c1ccc(I)cc1 (stereo not given) |  | > 100 | > 100 | > 100 | > 100 |  | 97.4 |  | > 47.6 |  |
| CC(C)/C(Cl)=N\OC(=O)Nc1ccc(C#N)cc1 | 12.9 | 43 | 25.3 | 31.6 | 33.7 | 7.85 | 30.5 | 39.8 | 32.7 | 32.2 |
| O=C(CCCN1CCC2(CC1)CC(=O)N(N1CCOCC1)C2=O)c1ccccc1 | > 100 | > 100 | > 100 | > 100 | > 100 | > 100 | > 100 |  | > 100 | > 100 |
| O=C(/C=C/c1ccsc1)c1ccsc1 | 74.4 | 74.8 | 39.6 | > 100 | 47.7 | 66.4 |  | > 100 | 94.6 | > 100 |
